Among the data in ChEMBL document CHEMBL3745628, “ent-Abietane-type diterpenoids from the roots of Euphorbia ebracteolata with their inhibitory activities on LPS-induced NO production in RAW 264.7 macrophages” (Bioorg Med Chem Lett, 2016) are Activity and IC50 values, retold here.

Data set [1] deals with RAW264.7. As to the kind of experiment: Cytotoxicity against mouse RAW264.7 cells assessed as reduction in cell viability at IC50 by MTT assay. In kind it is cell-based.
In data set [2] the test system is RAW264.7. As to the kind of experiment: Antiinflammatory activity in mouse RAW264.7 cells assessed as inhibition of LPS-induced NO production after 24 hrs by Griess method. In kind it is functional, cell-based. Conditions: RAW264.7, 24 h. A general note: Griess reagent forms a coloured azo dye with nitrite.

pIC50: −log10 of the molar value.

In the case of `CC1=C2C(=O)C3=C([C@@H](O)[C@H]2OC1=O)[C@]1(C)CCCC(C)(C)[C@H]1CC3`, the Activity result in the data set on RAW264.7 [1] is listed as “Non-toxic”. Further, the pIC50 in the data set on RAW264.7 [2] was 6.16.

As to `CC1=C2[C@@H](O)[C@@]3(O)CC[C@@H]4C(C)(C)CCC[C@@]4(C)[C@@H]3[C@@H](O)[C@H]2OC1=O`, the Activity result in the data set on RAW264.7 [1] is listed as “Non-toxic”. Further, the pIC50 in the data set with RAW264.7 [2] is 5.35.

As to `CC1=C2[C@H]3O[C@]34CC[C@@H]3C(C)(C)CCC[C@@]3(C)[C@@H]4[C@@H](O)[C@H]2OC1=O`, the Activity entry in the data set with RAW264.7 [1] is reported as “Non-toxic”. Further, the pIC50 in the data set on RAW264.7 [2] is 5.16.

Turning to `CC1=C2[C@@H](O)C3=C([C@@H](O)[C@H]2OC1=O)[C@]1(C)CCCC(C)(C)[C@H]1CC3`, in the data set on RAW264.7 [1], the Activity entry is “Non-toxic”. Also, the pIC50 in the data set with RAW264.7 [2] is 4.48.

For `CC1=C2[C@H](OC1=O)[C@H](O)[C@H]1[C@]3(C)CCCC(C)(C)[C@H]3CC[C@@]1(O)[C@H]2O`, the Activity entry in the data set on RAW264.7 [1] is listed as “Non-toxic”. Moreover, the pIC50 in the data set with RAW264.7 [2] is 4.81.

As to `CC1=C2[C@@H](O)C3=CC[C@@H]4C(C)(C)CCC[C@@]4(C)[C@@H]3[C@@H](O)[C@H]2OC1=O`, the Activity entry in the data set with RAW264.7 [1] is given as “Non-toxic”. Also, the pIC50 with RAW264.7 [2] is 4.85.

Regarding `CC1=C2C(=C[C@H]3[C@]4(C)CCCC(C)(C)[C@H]4CC[C@]34O[C@H]24)OC1=O`, in the data set on RAW264.7 [1], the Activity entry is on record as “Non-toxic”. Moreover, the pIC50 with RAW264.7 [2] was 4.60.

Take `CC1=C2C=C3CC[C@@H]4C(C)(C)CCC[C@@]4(C)[C@@H]3[C@@H](O)[C@H]2OC1=O`: the Activity result with RAW264.7 [1] is “Non-toxic”. Moreover, in the data set with RAW264.7 [2], the negative logarithm of the IC50 (pIC50) was 5.23.

Consider `CO[C@@]12OC(=O)C(C)=C1C=C1CC[C@@H]3C(C)(C)CCC[C@@]3(C)[C@@H]1[C@H]2O`, for which the Activity entry in the data set on RAW264.7 [1] is “Non-toxic”. For the same compound, the pIC50 in the data set on RAW264.7 [2] is 5.71.

One may read the pIC50 as −log10 of the IC50, conventionally taken in molar units.
